What was measured:
[1] = biological target: T1, PTGES2 (Homo sapiens, UniProt Q9H7Z7); test: ABPP-SILAC BPK-29yne competition in H460 cells: PTGES2; assay type: cell-based; conditions: 20 μM
T1 construct: Isotopically labeled H460 cell lines were generated as described above; endogenous in cells; host or cells: H460 (SILAC-labelled)
Protocol: Isotopically labeled H460 cell lines were generated as described above. Light and heavy cells were treated with compounds (20 μM) or DMSO, respectively, for 3 h, followed by labeling with the BPK-29yne (5 μM) for 30 min. Cells were washed once ice-cold PBS and lysed in 1% Triton 100-X dissolved in PBS with protease inhibitors (Sigma) by sonication. Lysate was adjusted to 1.5 mg ml^−1 in 500 μL. Samples were conjugated by CuAAC to Biotin-PEG4-azide (5 μL of 10 mM stocks in DMSO, final concentration=100 μM). CuAAC “click” mix contained TCEP, TBTA ligand and CuSO4 as detailed for isoTOP-ABPP sample preparation. Samples were further processed as detailed in: isoTOP-ABPP streptavidin enrichment and isoTOP-ABPP trypsin TEV digestion with the following exception: after overnight incubation at 37° C. with trypsin, tryptic digests were separated from the beads with Micro Bio-Spin columns (Bio-Rad) by centrifugation (1,000×g, 1 min). Beads were rinsed once with water (200 μL) and combined with tryptic digests. […]
The MS2 spectra data were extracted and searched using RAW Convertor and ProLuCID algorithm as described in isoTOP-ABPP peptide and protein quantification. […] Ratios of heavy/light (DMSO/test compound) peaks were calculated using in-house CIMAGE software. […] The mean R values and standard deviation for multiple biological experiments were calculated from the average ratios from each replicate. […]

[2] = biological target: T2, TXNRD1 (Homo sapiens, UniProt Q16881); test: isoTOP-ABPP of compound-treated H460 cells: TXNRD1; assay type: cell-based; conditions: TXNRD1 U648; 40 μM
T2 construct: endogenous in cells; host or cells: H460
T2 sequence (Q16881 whole entry): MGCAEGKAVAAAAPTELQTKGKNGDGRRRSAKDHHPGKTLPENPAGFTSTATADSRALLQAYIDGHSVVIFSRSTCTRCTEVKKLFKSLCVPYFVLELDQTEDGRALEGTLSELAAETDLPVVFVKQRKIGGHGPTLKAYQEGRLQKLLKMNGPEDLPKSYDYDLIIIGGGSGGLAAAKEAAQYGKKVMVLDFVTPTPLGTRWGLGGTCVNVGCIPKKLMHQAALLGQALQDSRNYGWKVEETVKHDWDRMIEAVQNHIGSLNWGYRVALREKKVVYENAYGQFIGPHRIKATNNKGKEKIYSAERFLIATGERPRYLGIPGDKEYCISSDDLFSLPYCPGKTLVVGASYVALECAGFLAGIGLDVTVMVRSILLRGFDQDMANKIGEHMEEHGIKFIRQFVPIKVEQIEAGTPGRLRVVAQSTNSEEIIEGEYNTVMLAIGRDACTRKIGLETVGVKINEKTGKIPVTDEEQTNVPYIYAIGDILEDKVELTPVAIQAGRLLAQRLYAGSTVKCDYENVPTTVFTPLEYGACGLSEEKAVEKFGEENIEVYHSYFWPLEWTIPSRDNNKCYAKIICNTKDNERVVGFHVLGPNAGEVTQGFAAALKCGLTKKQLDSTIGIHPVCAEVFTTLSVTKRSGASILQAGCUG
Protocol: For analysis of NR0B1 ligands or control compound reactivity, H460 cells or H460 cells expressing luciferase in a 10 cm plate were incubated with indicated compounds in serum/dye-free RPMI for 3 hours at 37° C. Cells were washed once ice-cold PBS and lysed in 1% Triton X-100 dissolved in PBS with protease inhibitors (Sigma) by sonication. Samples were clarified by centrifugation for 10 min at 16,000×g. Lysate was adjusted to 1.5 mg ml^−1 in 500 μL.
Samples were labeled for 1 h at ambient temperature with 100 μM iodoacetamide alkyne (1, IA-alkyne, 5 μL of 10 mM stock in DMSO). Samples were conjugated by copper-catalyzed azide-alkyne cycloaddition (CuAAC) to isotopically labeled, TEV-cleavable tags (TEV-tags). Heavy CuAAC reaction mixtures was added to the DMSO-treated or shGFP control samples and light CuAAC reaction mixture was added to compound-treated or shNRF2 samples. The CuAAC reaction mixture consisted of TEV tags (light or heavy, 10 μL of 5 mM stocks in DMSO, final concentration=100 μM), 1 mM tris(2-carboxyethyl)phosphine hydrochloride (TCEP; fresh 50× stock in water, final concentration=1 mM), ligand (17× stock in DMSO:t-butanol 1:4, final concentration=100 μM) and 1 mM CuSO4 (50× stock in water, final concentration=1 mM). The samples were allowed to react for 1 h at which point the samples were centrifuged (16,000×g, 5 min, 4° C.). […]

T1 sequence (Q9H7Z7 whole entry): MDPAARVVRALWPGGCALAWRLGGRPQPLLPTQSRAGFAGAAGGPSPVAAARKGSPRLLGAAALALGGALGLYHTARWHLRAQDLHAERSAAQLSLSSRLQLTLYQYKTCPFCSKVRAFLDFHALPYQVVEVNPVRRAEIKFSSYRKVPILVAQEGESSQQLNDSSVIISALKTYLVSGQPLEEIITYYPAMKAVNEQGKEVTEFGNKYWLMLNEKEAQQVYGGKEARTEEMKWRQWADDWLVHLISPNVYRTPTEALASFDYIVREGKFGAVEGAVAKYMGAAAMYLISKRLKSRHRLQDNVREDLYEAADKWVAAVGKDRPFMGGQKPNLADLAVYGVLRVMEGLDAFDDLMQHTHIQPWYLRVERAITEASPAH

Compound: O=C(c1ccc(N2CCOCC2)cc1)N1CCCC(N(Cc2ccccc2)C(=O)CCl)CC1 (centres unmarked) [BPK-29, N-benzyl-2-chloro-N-(1-(4-morpholinobenzoyl)azepan-4-yl)acetamide]
- BPK-29-competed BPK-29yne analysis [1]: Yes (Competed defined as showing R value ≥ 2.5 at 20 μM of test compound)
- BPK-29-competed isoTOP-ABPP analysis [2]: Yes (Competed defined as showing R value ≥ 3.0 at 40 μM of test compound)
